Laboratory results reported in patent US12648975B2, “Lactobacillus plantarum against Helicobacter pylori infection, and use thereof” (WECARE PROBIOTICS CO., LTD., priority 2021, dated 2026).

Tests used:
Helicobacter pylori [1] = assay: Inhibition zone experiment (Oxford cup method), Example 6; type: cell-based; conditions: 100 μL sample
Experimental: In this example, an inhibitory effect of the Lactobacillus plantarum in Example 3 on the growth of Helicobacter pylori was verified. Steps are described below. • (1) Helicobacter pylori at −80° C. was taken out, coated on a Columbia blood agar medium containing 5% sheep blood (v/v) for activation and culture and cultured in a microaerobic environment for 48 h at 37° C. • (2) The Lactobacillus plantarum was inoculated in an MRS liquid medium and cultured for 18 h at 37° C. for activation two consecutive times to obtain an activation solution. The activation solution was inoculated in an MRS liquid medium at an inoculum volume of 2% (v/v) and cultured for 18 h at 37° C. to obtain a bacterial solution. The bacterial solution was centrifuged at 8000 g for 10 min, and supernatant was taken and passed through a 0.22 μm sterile filtration membrane to obtain supernatant of the Lactobacillus plantarum. […] Effects of inhibiting the growth of Helicobacter pylori at 48 h and 72 h by the Lactobacillus plantarum were determined through the Oxford cup method.

Helicobacter pylori [2] = assay: Inhibition zone experiment (Oxford cup method) of health care product, Example 9; type: cell-based; conditions: 100 μL sample
Experimental: The health care product for inhibiting Helicobacter pylori infection was prepared into a suspension (a density of Lactobacillus plantarum Lp05 was 10^9 CFU/mL) with water, 100 μL suspension was taken and coated onto a surface of a punctured Colombian blood agar medium (a volume of the medium was 20 mL) containing 5% sheep blood without an antibiotic, and any one of the following groups of liquids was added separately to form different experimental groups: 100 μL suspension of the health care product to be tested, 100 μL positive control (a metronidazole solution having a mass concentration of 0.025%), 100 μL negative control (a PBS buffer) and a blank control (100 μL MRS liquid medium). Effects of inhibiting the growth of Helicobacter pylori at 48 h and 72 h were determined through an Oxford cup method.

Q: Which results are given for `Cc1ncc([N+](=O)[O-])n1CCO` [Positive control, metronidazole]?
A: Diameter of Inhibition Zone at 48 h (mm) (Helicobacter pylori [1]; 48 h of culture): 11.2 ± 2.3 mm; Diameter of Inhibition Zone at 72 h (mm) (Helicobacter pylori [1]; 72 h of culture): 12.4 ± 3.1 mm; Diameter of Inhibition Zone at 48 h (mm) (Helicobacter pylori [2]; 48 h of culture): 9.3 ± 2.5 mm; Diameter of Inhibition Zone at 72 h (mm) (Helicobacter pylori [2]; 72 h of culture): 9.8 ± 2.5 mm
